The results in this text go back to patent publication US12503475B2 (Centessa Pharmaceuticals (UK) Limited, priority 2020, dated 2025).

The structures appear in SMILES notation.

This assay concerns the target T1, human orexin type 2 receptor (hOX2R) (Homo sapiens, UniProt O43614).
T1 construct: expressed in transfected cells
T1 sequence (O43614 1-444): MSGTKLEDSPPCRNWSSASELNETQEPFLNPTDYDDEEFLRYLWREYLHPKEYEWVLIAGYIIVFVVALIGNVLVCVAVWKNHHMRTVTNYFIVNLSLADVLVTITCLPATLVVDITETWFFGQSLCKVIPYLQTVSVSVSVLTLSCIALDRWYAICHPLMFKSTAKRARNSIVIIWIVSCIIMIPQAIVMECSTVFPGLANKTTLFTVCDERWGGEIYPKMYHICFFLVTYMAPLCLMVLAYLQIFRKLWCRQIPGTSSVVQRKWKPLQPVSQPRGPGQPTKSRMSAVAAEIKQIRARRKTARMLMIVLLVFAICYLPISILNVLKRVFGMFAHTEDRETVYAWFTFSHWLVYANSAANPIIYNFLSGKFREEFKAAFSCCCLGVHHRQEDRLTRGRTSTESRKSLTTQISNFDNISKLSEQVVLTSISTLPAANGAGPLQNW
Description: Measurement of orexin type 2 receptor agonist activity (FLIPR calcium fluorescence). The assay is classed as cell-based. The note with it: CHO cells expressing hOX2R, FLIPR calcium fluorescence; for EC50: read-out: hOx2 pEC50 (converted); for Emax: CHO, read-out: hOx2 Emax (%). The procedure, abridged: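 Agonism was read as fluorescence in cells stably expressing human OX2R. E. is the response at 10 μM relative to orexin A as full agonist (100%).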

The term Emax denotes the size of the effect at its maximum, as opposed to the concentration needed. Take `O=C(NCC1(F)CC1)N1CC2(CC2)[C@H](NS(=O)(=O)CF)[C@@H]1Cc1cccc(-c2ccccc2)c1F` [Compound 157, (6S,7S)-6-((2-fluoro-[1,1′-biphenyl]-3-yl)methyl)-N-((1-fluorocyclopropyl)methyl)-7-((fluoromethyl)sulfonamido)-5-azaspiro[2.4]heptane-5-carboxamide]: the EC50 is 0.0794 to 1 nM and the Emax was 90 to 100%.
For `C[C@H](CF)NC(=O)N1CC2(CC2)[C@H](NS(=O)(=O)CF)[C@@H]1Cc1cccc(-c2ccccc2)c1F` [Compound 158], in that order: 0.0794 to 1 nM and 90 to 100%.
Turning to `C[C@H](F)C(=O)N1CC2(CC2)[C@H](NS(=O)(=O)C(F)F)[C@@H]1Cc1cccc(-c2ccccc2)c1F` [Compound 160, 1,1-difluoro-N-((6S,7S)-6-((2-fluoro-[1,1′-biphenyl]-3-yl)methyl)-5-((S)-2-fluoropropanoyl)-5-azaspiro[2.4]heptan-7-yl)methanesulfonamide], the EC50 is 0.0794 to 1 nM and the Emax was 90 to 100%.
As to `CS(=O)(=O)N[C@@H]1[C@H](Cc2cccc(-c3cccc(Cl)c3)c2F)N(C(=O)[C@H]2CCO2)CC12CC2` [Compound 161, N-((6S,7S)-6-((3′-chloro-2-fluoro-[1,1′-biphenyl]-3-yl)methyl)-5-((R)-oxetane-2-carbonyl)-5-azaspiro[2.4]heptan-7-yl)methanesulfonamide], the EC50 is 1 to 10 nM and the Emax fell in the range of 90 to 100%.
The corresponding values for `CC(C)S(=O)(=O)N[C@@H]1[C@H](Cc2cccc(-c3ccccc3)c2F)N(C(=O)[C@H]2CCO2)CC12CC2` [Compound 162, N-((6S,7S)-6-((2-fluoro-[1,1′-biphenyl]-3-yl)methyl)-5-((R)-oxetane-2-carbonyl)-5-azaspiro[2.4]heptan-7-yl)propane-2-sulfonamide] are 1 to 10 nM and 90 to 100%.
With `O=C([C@H]1CCO1)N1CC2(CC2)[C@H](NS(=O)(=O)C(F)F)[C@@H]1Cc1cccc(-c2ccccc2F)c1F` [Compound 163, N-((6S,7S)-6-((2,2′-difluoro-[1,1′-biphenyl]-3-yl)methyl)-5-((R)-oxetane-2-carbonyl)-5-azaspiro[2.4]heptan-7-yl)-1,1-difluoromethanesulfonamide], the EC50 is 1 to 10 nM and the Emax lay in the range of 90 to 100%.
The corresponding values for `CC(C)(O)C(=O)N1CC2(CC2)[C@H](NS(=O)(=O)C(F)F)[C@@H]1Cc1cccc(-c2cccc(F)c2)c1F` [Compound 164, N-((6S,7S)-6-((2,3′-difluoro-[1,1′-biphenyl]-3-yl)methyl)-5-(2-hydroxy-2-methylpropanoyl)-5-azaspiro[2.4]heptan-7-yl)-1,1-difluoromethanesulfonamide] are 10 to 100 nM and 80 to 90%.
With `O=C(NCC(F)F)N1CC2(CC2)[C@H](NS(=O)(=O)C(F)F)[C@@H]1Cc1cccc(-c2ccccc2)c1F` [Compound 165, (6S,7S)-N-(2,2-difluoroethyl)-7-((difluoromethyl)sulfonamido)-6-((2-fluoro-[1,1′-biphenyl]-3-yl)methyl)-5-azaspiro[2.4]heptane-5-carboxamide], the EC50 was 1 to 10 nM and the Emax lay in the range of 90 to 100%.
In the case of `O=C(NCC1(F)CC1)N1CC2(CC2)[C@H](NS(=O)(=O)C(F)F)[C@@H]1Cc1cccc(-c2ccccc2)c1F` [Compound 166, (6S,7S)-7-((difluoromethyl)sulfonamido)-6-((2-fluoro-[1,1′-biphenyl]-3-yl)methyl)-N-((1-fluorocyclopropyl)methyl)-5-azaspiro[2.4]heptane-5-carboxamide], the EC50 is 1 to 10 nM and the Emax was in the range of 90 to 100%.
As for `O=C([C@H]1CCO1)N1CC2(CC2)[C@H](NS(=O)(=O)C(F)(F)F)[C@@H]1Cc1cccc(-c2ccccc2)c1F` [Compound 167, 1,1,1-trifluoro-N-((6S,7S)-6-((2-fluoro-[1,1′-biphenyl]-3-yl)methyl)-5-((R)-oxetane-2-carbonyl)-5-azaspiro[2.4]heptan-7-yl)methanesulfonamide], the EC50 was 10 to 100 nM and the Emax fell in the range of 80 to 90%.
Take `O=C([C@H]1CCO1)N1CC2(CC2)[C@H](NS(=O)(=O)CF)[C@@H]1Cc1cccc(-c2cccc(F)c2F)c1F` [Compound 168, 1-fluoro-N-((6S,7S)-5-((R)-oxetane-2-carbonyl)-6-((2,2′,3′-trifluoro-[1,1′-biphenyl]-3-yl)methyl)-5-azaspiro[2.4]heptan-7-yl)methanesulfonamide]: the EC50 was 1 to 10 nM and the maximal effect (Emax) is 90 to 100%.
With `O=C([C@H]1CCO1)N1CC2(CC2)[C@H](NS(=O)(=O)CF)[C@@H]1Cc1cccc(-c2cc(F)ccc2F)c1F` [Compound 169, 1-fluoro-N-((6S,7S)-5-((R)-oxetane-2-carbonyl)-6-((2,2′,5′-trifluoro-[1,1′-biphenyl]-3-yl)methyl)-5-azaspiro[2.4]heptan-7-yl)methanesulfonamide], the EC50 is 1 to 10 nM and the Emax was 90 to 100%.
Regarding `O=C([C@@H](O)C1CC1)N1CC2(CC2)[C@H](NS(=O)(=O)C(F)F)[C@@H]1Cc1cccc(-c2ccccc2)c1F` [Compound 170, N-((6S 7S)-5-((S)-2-cyclopropyl-2-hydroxyacetyl)-6-((2-fluoro-[1,1′-biphenyl]-3-yl)methyl)-5-azaspiro[2.4]heptan-7-yl)-1,1-difluoromethanesulfonamide], the EC50 is 1 to 10 nM and the Emax was 90 to 100%.
On to `O=C([C@H]1CCO1)N1CC2(CC2)[C@H](NS(=O)(=O)C(F)F)[C@@H]1Cc1cccc(-c2cc(F)ccc2F)c1F` [Compound 171, 1,1-difluoro-N-((6S,7S)-5-((R)-oxetane-2-carbonyl)-6-((2,2′,5′-trifluoro-[1,1′-biphenyl]-3-yl)methyl)-5-azaspiro[2A]heptan-7-yl)methanesulfonamide], for which the EC50 was 1 to 10 nM and the Emax fell in the range of 90 to 100%.
As for `O=C([C@H]1CCO1)N1CC2(CC2)[C@H](NS(=O)(=O)C(F)F)[C@@H]1Cc1cccc(-c2cccc(F)c2F)c1F` [Compound 172], the EC50 was 1 to 10 nM and the Emax is 90 to 100%.
For the compound `[2H]c1c([2H])c([2H])c(-c2cccc(C[C@H]3[C@@H](NS(=O)(=O)C(F)F)C4(CC4)CN3C(=O)[C@H]3CCO3)c2F)c([2H])c1[2H]` [Compound 173, 1,1-difluoro-N-((6S,7S)-6-((2-fluoro-[1,1′-biphenyl]-3-yl-2′,3′,4′,5′,6′-d5)methyl)-5-((R)-oxetane-2-carbonyl)-5-azaspiro[2.4]heptan-7-yl)methanesulfonamide], the EC50 is 1 to 10 nM and the Emax lay in the range of 90 to 100%.
For the compound `O=C([C@H](O)CF)N1CC2(CC2)[C@H](NS(=O)(=O)C(F)F)[C@@H]1Cc1cccc(-c2ccccc2)c1F` [Compound 174, 1,1-difluoro-N-((6S,7S)-5-((S)-3-fluoro-2-hydroxypropanoyl)-6-((2-fluoro-[1,1′-biphenyl]-3-yl)methyl)-5-azaspiro[2.4]heptan-7-yl)methanesulfonamide], the EC50 was 1 to 10 nM and the Emax is 90 to 100%.
The corresponding values for `O=C([C@H]1CCO1)N1CC2(CC2)[C@H](NS(=O)(=O)C(F)F)[C@@H]1Cc1cc(F)cc(-c2cccc(F)c2)c1F` [Compound 176, 1,1-difluoro-N-((6S,7S)-5-((R)-oxetane-2-carbonyl)-6-((2,3′,5-trifluoro-[1,1′-biphenyl]-3-yl)methyl)-5-azaspiro[2.4]heptan-7-yl)methanesulfonamide] are 1 to 10 nM and 90 to 100%.
